From patent US11852634B2, “Use of AKT phosphorylation as a biomarker for prognosing neurodegenerative diseases and treating same” (Yeda Research and Development Co. Ltd., priority 2011, dated 2023)
Where no end group is shown, it is not given here.

Tested on: healthy mice
Experiment: Repeated-dose safety in healthy mice
Format: in vivo
Settings: dose four times higher than the effective dose, daily, for 28 days
Text: Accordingly, the peptide of the invention is suitable for chronic use. In addition, the peptide of the invention was shown effective when administered intravenously (IV), intraperitoneally (IP) or in combination of these two modes of delivery.

In the case of LPPLPYP [SEQ ID NO: 1, LPPLPYP], the Side effects is reported as “did not initiate any detectable side effect”.
